Reference: patent US20130101972A1, “METHODS FOR REDUCING RISK” (SANOFI, priority 2009, published 2013)

Legend:
Format in all cases: in vivo, human
patients with AF/AFL = test: Pooled safety analysis of 5 controlled AF/AFL clinical studies, dronedarone 400 mg BID versus placebo
Text: (§1) The safety of dronedarone has been evaluated in a clinical development program that included, as of 12 Mar. 2008, a total of 8276 treated patients/healthy subjects in 55 completed studies. Of these, 4794 patients/healthy subjects received dronedarone.
Patients with the claimed indication of AF/AFL were included in 5 controlled clinical studies representing 88% (6285 patients) of the exposed patient population (7109 patients). Other patient populations, representing 14% (1028 patients) of the exposed patient population, were included in 13 clinical studies in patients with other cardiac conditions and patients with renal and hepatic impairment.
The safety profile of dronedarone 400 mg BID is derived from analysis of the 3282 patients in the 5 AF/AFL studies who were treated with dronedarone 400 mg BID and the 2875 who received placebo. The mean duration of exposure across the 5 studies in the dronedarone 400 mg BID group was 13.5 months, representing total exposure of 3684 patient-years. In the ATHENA study, the maximum follow-up was 30 months.
Discontinuation due to adverse reactions occurred in 11.8% of patients in the dronedarone 400 mg BID group and 7.7% in the placebo-treated group. The most common adverse events causing discontinuation of therapy with dronedarone 400 mg BID were gastrointestinal disorders (3.2% of patients versus 1.8% in the placebo group).

[1] = system: patients with atrial fibrillation (AF) or atrial flutter (AFL) or a history of AF or AFL; test: Clinical efficacy in patients with AF or AFL: cardiovascular hospitalization; settings: 400 mg twice daily (BID)
Text: as §1

[2] = system: patients with severe heart failure; test: ANDROMEDA study, placebo-controlled, in patients with left ventricular dysfunction hospitalized with symptomatic HF; settings: versus placebo, patients with severe heart failure requiring recent hospitalization or referral
Procedure: The present invention relates to the following identified and potential risk of dronedarone: mortality in patients with severe heart failure (HF) during treatment. The study referred to as ANDROMEDA was conducted in 627 patients with left ventricular dysfunction, hospitalized with symptomatic HF, requiring treatment with a diuretic, who have had within the last month at least 1 episode of dyspnea or fatigue at rest, or on slight exertion. […] The study was stopped prematurely due to an observed imbalance of deaths in the dronedarone group [n=25 versus 12 (placebo), p=0.027]. The main reason for death was worsening heart failure. Clinical judgment of the physician should guide the management plan of each patient based on individual benefit/risk assessment.

Structure (SMILES): CCCCc1oc2ccc(NS(C)(=O)=O)cc2c1C(=O)c1ccc(OCCCN(CCCC)CCCC)cc1 [dronedarone, 2-n-butyl-3-[4-(3-di-n-butylaminopropoxy)benzoyl]-5-methylsulfonamido-benzofuran]
- Most frequent investigation abnormalities (patients with AF/AFL; dronedarone 400 mg BID): QT prolongation and increase in serum creatinine
- Discontinuation due to adverse reactions (patients with AF/AFL; dronedarone 400 mg BID group, 5 AF/AFL studies, placebo 7.7%): 11.8 % of patients
- Most frequent clinical adverse reactions (patients with AF/AFL; dronedarone 400 mg BID, 5 studies): diarrhea, nausea and vomiting, fatigue, asthenia, bradycardia, and rashes
- Gastrointestinal disorders causing discontinuation of therapy (most common adverse events causing discontinuation) (patients with AF/AFL; dronedarone 400 mg BID, placebo 1.8%): 3.2 % of patients
- Effect of intrinsic factors (race, gender, age) on incidence of any treatment-emergent adverse events (patients with AF/AFL; subgroup assessment): did not suggest any excess of adverse events in a particular subgroup
- Change in serum creatinine (patients with AF/AFL; within a week, does not reflect a change in underlying renal function): small change in serum creatinine
- Reduction of the risk of cardiovascular hospitalization [1]: effective for reduction of the risk of cardiovascular hospitalization
- Increase in mortality [2]: greater than two-fold increase in mortality
